Literature values, collected in US7696365B2 (Chugai Seiyaku Kabushiki Kaisha, priority 2003, dated 2010).

How the values were obtained:
[1] = tested on: human breast cancer cells
[2] = tested on: muscle (M) isoform of CPT-I; details: read-out: IC50 of malonyl-CoA inhibition, muscle isoform

| Compound | malonyl-CoA level ([1]; breast carcinoma cells) | antitumor activity ([1]; human breast cancer cells and xenografts) | IC50 [2] |
| --- | --- | --- | --- |
| CCCCCCCCCCCCCCOc1ccc(C(=O)O)o1 [TOFA, 5-(tetradecyloxy)-2-furoic acid] | 60 % of the control | does not show any antitumor activity |  |
| CC(C)(COP(=O)(O)OP(=O)(O)OC[C@H]1O[C@@H](n2cnc3c(N)ncnc32)[C@H](O)[C@@H]1OP(=O)(O)O)[C@@H](O)C(=O)NCCC(=O)NCCSC(=O)CC(=O)O [malonyl-CoA, Malonyl-CoA] |  |  | 30 nM |
